For the first experiment, the target named is truncated form of human NaV 1.8 with full channel activity (Homo sapiens, UniProt Q9Y5Y9). Nature of the experiment: E-VIPR Assay Method A for detecting and measuring Nav inhibition (HEK cells, membrane potential FRET dyes, electrical stimulation). Conditions: HEK cells expressing human NaV 1.8, HS (human serum) in compound loading buffer, 11 point dose response, top dose 3 μM, Table 20, read-out: Nav 1.8 MedChem Optical Assay EVIPR Assay Method A HS IC50. The class given is cell-based. A digest of the protocol:
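Read-out: FRET membrane-potential dye ratio (460/580 nm) before and during E-VIPR field stimulation at 10 Hz for 10 s, expressed as % activity between DMSO and positive controls. Cells: HEK with truncated human NaV1.8; compound preincubated 30 min at room temp, final DMSO 0.625%.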
truncated form of human NaV 1.8 with full channel activity, sequence (Q9Y5Y9 126-1722 limits assumed): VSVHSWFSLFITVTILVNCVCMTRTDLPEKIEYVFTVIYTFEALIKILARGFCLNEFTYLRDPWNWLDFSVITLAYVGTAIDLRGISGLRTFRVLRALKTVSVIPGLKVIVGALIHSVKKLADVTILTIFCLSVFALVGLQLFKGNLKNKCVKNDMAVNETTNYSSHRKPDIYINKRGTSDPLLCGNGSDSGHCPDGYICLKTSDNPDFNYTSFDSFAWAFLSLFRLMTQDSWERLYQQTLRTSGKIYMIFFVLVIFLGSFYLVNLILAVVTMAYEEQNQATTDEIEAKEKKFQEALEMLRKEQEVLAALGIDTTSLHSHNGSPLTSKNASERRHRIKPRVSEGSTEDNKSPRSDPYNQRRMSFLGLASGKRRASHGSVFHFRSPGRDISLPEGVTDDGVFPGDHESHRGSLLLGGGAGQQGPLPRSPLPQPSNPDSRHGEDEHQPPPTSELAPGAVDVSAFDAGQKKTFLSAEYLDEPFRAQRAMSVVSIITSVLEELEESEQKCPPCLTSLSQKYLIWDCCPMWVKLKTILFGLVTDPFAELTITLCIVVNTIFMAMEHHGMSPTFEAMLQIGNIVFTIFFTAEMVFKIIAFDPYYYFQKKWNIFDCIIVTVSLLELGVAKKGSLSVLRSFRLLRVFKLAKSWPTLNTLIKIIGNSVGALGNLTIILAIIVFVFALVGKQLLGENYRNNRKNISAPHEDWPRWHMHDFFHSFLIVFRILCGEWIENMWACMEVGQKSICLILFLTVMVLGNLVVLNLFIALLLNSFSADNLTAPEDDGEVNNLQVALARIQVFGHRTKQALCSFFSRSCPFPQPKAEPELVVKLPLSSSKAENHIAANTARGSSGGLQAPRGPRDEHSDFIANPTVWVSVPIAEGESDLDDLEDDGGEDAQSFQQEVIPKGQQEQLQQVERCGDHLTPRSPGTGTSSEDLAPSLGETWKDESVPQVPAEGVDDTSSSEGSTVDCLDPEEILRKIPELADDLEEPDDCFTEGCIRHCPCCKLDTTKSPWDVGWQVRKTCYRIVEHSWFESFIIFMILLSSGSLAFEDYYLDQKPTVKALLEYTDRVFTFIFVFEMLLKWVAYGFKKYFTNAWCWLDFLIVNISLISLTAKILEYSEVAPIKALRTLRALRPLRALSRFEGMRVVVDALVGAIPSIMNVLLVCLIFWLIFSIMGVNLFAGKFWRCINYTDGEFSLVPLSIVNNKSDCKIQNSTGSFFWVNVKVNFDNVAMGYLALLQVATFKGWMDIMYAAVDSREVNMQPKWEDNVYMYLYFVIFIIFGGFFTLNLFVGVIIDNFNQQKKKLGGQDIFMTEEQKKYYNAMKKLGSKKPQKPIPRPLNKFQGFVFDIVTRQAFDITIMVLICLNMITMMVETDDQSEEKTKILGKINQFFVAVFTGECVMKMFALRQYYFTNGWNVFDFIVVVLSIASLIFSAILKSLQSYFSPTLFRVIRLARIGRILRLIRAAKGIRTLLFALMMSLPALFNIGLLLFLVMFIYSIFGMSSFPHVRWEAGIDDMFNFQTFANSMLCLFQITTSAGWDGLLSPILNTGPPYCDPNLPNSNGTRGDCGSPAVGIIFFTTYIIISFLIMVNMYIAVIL
As for `NC(=O)c1cc(NC(=O)c2c(Oc3ccc(F)cc3)ccc(C(F)(F)F)c2F)ccc1F` [Compound 25, N-(3-carbamoyl-4-fluoro-phenyl)-2-fluoro-6-(4-fluorophenoxy)-3-(trifluoromethyl)benzamide], the IC50 stood at 18 nM.

The experiment is the same for the next values; noted with them: HEK cells expressing human NaV 1.8, HS (human serum) in compound loading buffer, 11 point dose response, top dose 3 μM, Table 20A, read-out: Nav 1.8 MedChem Optical Assay EVIPR Assay Method A HS IC50.
Turning to `COc1cc(OC(F)(F)F)ccc1Oc1ccc(C(F)(F)F)c(F)c1C(=O)Nc1ccc(C(N)=O)nc1` [Compound 193, 5-[[2-fluoro-6-[2-methoxy-4-(trifluoromethoxy)phenoxy]-3-(trifluoromethyl)benzoyl]amino]pyridine-2-carboxamide], the half-maximal inhibitory concentration (IC50) came to 16 nM.

As to `COc1c(C(F)(F)F)ccc(Oc2ccc(OC(F)(F)F)cc2)c1C(=O)Nc1ccnc(C(N)=O)c1` [Compound 91, 4-[[2-Methoxy-6-[4-(trifluoromethoxy)phenoxy]-3-(trifluoromethyl)benzoyl]amino]pyridine-2-carboxamide], the IC50 worked out at 40 nM. Still for that read-out and setting: next, `[2H]C([2H])([2H])Oc1c(Oc2ccc(C(F)(F)F)c(F)c2C(=O)Nc2ccc(C(=O)NC)nc2)ccc(OC(F)(F)F)c1F` [Compound 229, 5-[[2-Fluoro-6-[3-fluoro-2-(trideuteriomethoxy)-4-(trifluoromethoxy)phenoxy]-3-(trifluoromethyl)benzoyl]amino]-N-methyl-pyridine-2-carboxamide]: 47 nM; `[2H]C([2H])([2H])Oc1cc(OC(F)(F)F)ccc1Oc1cc(C(F)(F)F)cc(F)c1C(=O)Nc1ccc(C(N)=O)nc1` [Compound 154]: 55 nM. The same measure, in the same setting: next, `COc1cc(OC(F)(F)F)ccc1Oc1ccc(C(F)(F)F)c(F)c1C(=O)Nc1cccc(C(N)=O)c1` [Compound 44, N-(3-carbamoylphenyl)-2-fluoro-6-[2-methoxy-4-(trifluoromethoxy)phenoxy]-3-(trifluoromethyl)benzamide]: 5 nM. As for `COc1cc(OC(F)(F)F)ccc1Oc1cc(C(F)(F)F)cc(F)c1C(=O)Nc1ccc(C(N)=O)nc1` [Compound 187, 5-[[2-Fluoro-6-[2-methoxy-4-(trifluoromethoxy)phenoxy]-4-(trifluoromethyl)benzoyl]amino]pyridine-2-carboxamide], the IC50 worked out at 53 nM. The same measure, in the same setting: the result for `COc1cc(OC(F)(F)F)ccc1Oc1ccc(C(F)(F)F)c(F)c1C(=O)Nc1ccc(C(N)=O)cc1F` [Compound 82, N-(4-carbamoyl-2-fluoro-phenyl)-2-fluoro-6-[2-methoxy-4-(trifluoromethoxy)phenoxy]-3-(trifluoromethyl)benzamide] reads 92 nM; that for `NC(=O)c1cc(NC(=O)c2c(Oc3ccc(OC(F)(F)F)cc3O)ccc(C(F)(F)F)c2F)ccn1` [Compound 214, 4-[[2-Fluoro-6-[2-hydroxy-4-(trifluoromethoxy)phenoxy]-3-(trifluoromethyl)benzoyl]amino]pyridine-2-carboxamide], 660 nM; that for `[2H]C([2H])([2H])Oc1c(Oc2cc(Cl)cc(Cl)c2C(=O)Nc2ccnc(C(N)=O)c2)ccc(OC(F)(F)F)c1F` [Compound 224, 4-[[2,4-Dichloro-6-[3-fluoro-2-(trideuteriomethoxy)-4-(trifluoromethoxy)phenoxy]benzoyl]amino]pyridine-2-carboxamide], 9 nM. Still for that read-out and setting: the result for `NC(=O)c1cc(NC(=O)c2c(Oc3ccc(OC(F)(F)F)c(O)c3)ccc(C(F)(F)F)c2F)ccc1F` [Compound 141, N-(3-Carbamoyl-4-fluoro-phenyl)-2-fluoro-6-[3-hydroxy-4-(trifluoromethoxy)phenoxy]-3-(trifluoromethyl)benzamide] reads 103 nM; that for `NC(=O)c1cccc(NC(=O)c2c(Oc3ccc(F)cc3)ccc(C(F)(F)F)c2F)c1` [Compound 49, N-(3-carbamoylphenyl)-2-fluoro-6-(4-fluorophenoxy)-3-(trifluoromethyl)benzamide], 130 nM; that for `COc1cc(F)ccc1-c1cnc(C(F)(F)F)cc1C(=O)Nc1ccc(F)c(C(N)=O)c1` [Compound 200, N-(3-carbamoyl-4-fluoro-phenyl)-5-(4-fluoro-2-methoxy-phenyl)-2-(trifluoromethyl)pyridine-4-carboxamide], greater than 3100 nM.

The record behind these values is patent US12281057B2 (VERTEX PHARMACEUTICALS INCORPORATED, priority 2017, dated 2025).
